This assay has as its target T1, P-glycoprotein (PGP/MDR1) (Homo sapiens, UniProt P08183).
T1 construct: gene ABCB1; recombinant human PGP in membrane vesicles (Human MDR1 vesicles)
Nature of the assay: ATPase stimulation (ADP-Glo Max) in human MDR1 vesicles; also Calcein-AM retention in HepG2 cells. Type of assay: biochemical.

T1 sequence (P08183 whole entry): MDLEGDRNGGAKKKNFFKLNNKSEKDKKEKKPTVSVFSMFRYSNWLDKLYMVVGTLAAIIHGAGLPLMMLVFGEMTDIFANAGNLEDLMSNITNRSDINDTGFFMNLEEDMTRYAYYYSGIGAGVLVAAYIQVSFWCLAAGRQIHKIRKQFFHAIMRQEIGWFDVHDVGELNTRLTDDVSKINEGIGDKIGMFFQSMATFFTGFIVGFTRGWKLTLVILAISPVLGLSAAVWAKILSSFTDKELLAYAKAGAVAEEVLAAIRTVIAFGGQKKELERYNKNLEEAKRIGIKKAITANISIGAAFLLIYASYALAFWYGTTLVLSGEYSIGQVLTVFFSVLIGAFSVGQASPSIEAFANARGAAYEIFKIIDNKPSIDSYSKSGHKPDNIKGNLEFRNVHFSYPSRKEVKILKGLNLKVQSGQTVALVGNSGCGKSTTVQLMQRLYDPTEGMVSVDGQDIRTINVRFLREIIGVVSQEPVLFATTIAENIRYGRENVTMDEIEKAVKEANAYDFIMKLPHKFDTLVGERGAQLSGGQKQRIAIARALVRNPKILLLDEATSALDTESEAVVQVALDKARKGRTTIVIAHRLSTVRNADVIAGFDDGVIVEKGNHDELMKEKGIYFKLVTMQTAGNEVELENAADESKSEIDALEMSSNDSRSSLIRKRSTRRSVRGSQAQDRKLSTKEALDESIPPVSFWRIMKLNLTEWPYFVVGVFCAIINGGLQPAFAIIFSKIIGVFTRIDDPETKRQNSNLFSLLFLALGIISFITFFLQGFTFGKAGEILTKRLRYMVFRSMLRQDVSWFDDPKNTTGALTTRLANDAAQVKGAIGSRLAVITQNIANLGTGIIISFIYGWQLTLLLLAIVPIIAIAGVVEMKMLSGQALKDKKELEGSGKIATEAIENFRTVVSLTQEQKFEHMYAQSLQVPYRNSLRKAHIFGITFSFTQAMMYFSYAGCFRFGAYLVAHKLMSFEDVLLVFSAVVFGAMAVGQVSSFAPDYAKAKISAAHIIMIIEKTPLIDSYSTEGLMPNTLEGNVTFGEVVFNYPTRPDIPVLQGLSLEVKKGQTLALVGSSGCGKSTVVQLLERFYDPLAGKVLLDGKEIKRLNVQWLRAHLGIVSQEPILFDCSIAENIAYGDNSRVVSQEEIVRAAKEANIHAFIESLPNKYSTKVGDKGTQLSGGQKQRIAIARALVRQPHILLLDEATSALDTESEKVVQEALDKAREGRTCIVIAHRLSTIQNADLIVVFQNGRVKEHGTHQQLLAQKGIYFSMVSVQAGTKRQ

The term EC50 denotes the midpoint of the concentration-response curve. As for `OC[C@H]1O[C@H](O[C@]2(CCl)O[C@H](CCl)[C@@H](O)[C@@H]2O)[C@H](O)[C@@H](O)[C@H]1Cl` [Sucr, sucralose], the concentration giving a half-maximal response (EC50) was 0.056 nM.

The values above are taken from PMC10005754, “Non-Nutritive Sweeteners Acesulfame Potassium and Sucralose Are Competitive Inhibitors of the Human P-glycoprotein/Multidrug Resistance Protein 1 (PGP/MDR1)” (Nutrients, 2023).
